Tested on: Colletotrichum musae
Test: Field test on inoculated banana hands: severity and incidence of molds and rots after 21 days storage
Assay type: in vivo
Conditions: 14 Degrees C., 90% RH
Text: As set forth below, two sample formulations, Formula “C” and Formula “F”, containing paraffin wax, microcrystalline wax, and polybutylene (synthetic butyl rubber) were field tested in a tropical commercial banana operation. The test was designed to test the wax fungicide alternative, “the invention”, versus untreated placebo fruit and identical fruit treated with commercial fungicides. The inoculants were a highly concentrated aqueous Colletotrichum musae spore solution that is grossly more concentrated than actual field processing conditions. […] The test methodology included with four main test groups, each containing a statistically significant number of banana hands (clusters) to compare the relative infestation incidence rate of: • a.) Untreated inoculated fruit. • b.) Modified-wax treated inoculated fruit.—Two Formulas, C and F • c.) Fungicide treated inoculated fruit. • 1.) All of the fruit was inoculated with an aqueous suspension of 20,000 spores per milliliter of Colletotrichum by immersion in said suspension for a minimum of one minute. • 2.) The Formula C and F wax treated fruit was processed by dipping the wet crown of the inoculated banana hands into the molten wax, cooling for one minute, and re-dipping in the molten wax. • 3.) The Fungicide treated fruit was immersed into an aqueous solution of Thiabenzadole at the manufacturer's recommended dosage. • 4. All of the fruit was packaged and stored in a laboratory warehouse for twenty-one days at a temperature of 14 Degrees C. and ninety percent relative humidity. An empirical visual grading scale was employed to record and measure test results for a.) The presence or absence of rots and molds.; and b.) The severity of infestation. Latex staining was also observed and recorded. A visual infestation severity scale of one to five (1-5) was created where: 1=clean crown, and 5=severely rotten crown. After incubation, the banana producer's trained laboratory technicians graded the fruit and the aggregate results were compiled as presented below.

In the case of c1ccc2[nH]c(-c3cscn3)nc2c1 [Thiabenzadole], the “Severity Crown Mold” value (Procedure I = Inoculated (20,000 spores/ml Colletotrichum), 1=clean crown, 5=severely rotten crown) is reported as 3.7 Scale 1-5, the “INCIDENCE Crown Mold” value (Procedure I = Inoculated) is reported as 92.2% and the “INCIDENCE Crown Rot” value (Procedure I = Inoculated) is reported as 100%. For the same molecule, the “INCIDENCE Neck Rot” value (Procedure I = Inoculated) was 27.2%, the “INCIDENCE Peel Rot” value (Procedure I = Inoculated) was 84% and the “Severity Crown Rot” value (Procedure I = Inoculated, 1=clean crown, 5=severely rotten crown) was 3.92 Scale 1-5.
